Assay results from PMC7738871, “Covalent modification of Keap1 at Cys77 and Cys434 by pubescenoside a suppresses oxidative stress-induced NLRP3 inflammasome activation in myocardial ischemia-reperfusion injury” (Theranostics, 2021).
pKd: −log10 of the molar value.

How the values were obtained:
[1] = test system: Keap1-dependent Nrf2 ubiquitination; experiment: Keap1-dependent Nrf2 ubiquitination in 293T cells; format: cell-based, human
Method: Alkylation of the BTB domain of Keap1 by covalent modifiers contributes to the disruption of the Keap1-Cul3 interactions, leading to Nrf2 activation. Next, we investigated the effect of PBA on the modulation of Nrf2 ubiquitination as Nrf2 stability is controlled by ubiquitin-mediated proteasomal degradation. First, 3X Flag-Keap1, Myc-Nrf2 and Ub plasmids were transfected into 293T cells and then, the cells were treated with 30 μM PBA for 20 h and 5 μM MG132 for another 4 h. Cell lysates were pulled down using anti-Myc beads, and immunopurified Nrf2 was examined for the occurrence of Ub by western blotting. […] As shown in Figure 6E-F, PBA could disrupt the interaction of Keap1 and Cul3 in WT-Keap1 cells, while the disruption was blocked in the Cys77S and Cys434-Keap1 mutant cells.
Figure 6 PBA suppresses Keap1-mediated ubiquitination of Nrf2 by disrupting the interaction between Cul3 and Keap1. (A and B) PBA suppressed Nrf2 ubiquitination in a Keap1-Cys77 and C434-dependent manner. First, 293T cells were transfected with WT-Keap1 or C77S and C434S-Keap1, Myc-Nrf2, and Ub plasmids for 24 h and treated with 30 μM PBA. The cell lysates were immunoprecipitated using anti-Myc beads, and the ubiquitination level was evaluated using the anti-Ub antibody. (C and D) PBA induced the dissociation of the Nrf2-Keap1 complex. Then, 293T cells were cotransfected with WT-Keap1 and Flag-Nrf2 plasmids for 24 h and treated with 30 μM PBA for 12 h. The cell lysates were immunoprecipitated with the anti-Flag antibody, and the level of Nrf2 was assessed using the anti-Nrf2 antibody. (E and F) PBA disrupted the interaction between Cul3 and Keap1. […] The cell lysates were immunoprecipitated with the anti-Flag antibody, and the level of Cul3 was measured using the anti-Cul3 antibody. #p < 0.05, ##p < 0.01, ###p < 0.001, the control vs DMSO; *p < 0.05,**p < 0.01, ***p < 0.001, PBA or tBHQ vs DMSO. […] Cell viability was measured by MTT assays. #p < 0.05, ###p < 0.001, the control vs OGD/R; **p < 0.01, ***p < 0.001, OGD/R+PBA vs OGD/R.

[2] = target: T1, Keap1 C38S (Homo sapiens, UniProt Q14145, C38S); experiment: ITC titration of PBA with Keap1-C38S; format: binding; details: 25 ℃
T1 construct: His (N); made in house; host or cells: E. coli BL21 (DE3)
T1 sequence (Q14145 whole entry C38S): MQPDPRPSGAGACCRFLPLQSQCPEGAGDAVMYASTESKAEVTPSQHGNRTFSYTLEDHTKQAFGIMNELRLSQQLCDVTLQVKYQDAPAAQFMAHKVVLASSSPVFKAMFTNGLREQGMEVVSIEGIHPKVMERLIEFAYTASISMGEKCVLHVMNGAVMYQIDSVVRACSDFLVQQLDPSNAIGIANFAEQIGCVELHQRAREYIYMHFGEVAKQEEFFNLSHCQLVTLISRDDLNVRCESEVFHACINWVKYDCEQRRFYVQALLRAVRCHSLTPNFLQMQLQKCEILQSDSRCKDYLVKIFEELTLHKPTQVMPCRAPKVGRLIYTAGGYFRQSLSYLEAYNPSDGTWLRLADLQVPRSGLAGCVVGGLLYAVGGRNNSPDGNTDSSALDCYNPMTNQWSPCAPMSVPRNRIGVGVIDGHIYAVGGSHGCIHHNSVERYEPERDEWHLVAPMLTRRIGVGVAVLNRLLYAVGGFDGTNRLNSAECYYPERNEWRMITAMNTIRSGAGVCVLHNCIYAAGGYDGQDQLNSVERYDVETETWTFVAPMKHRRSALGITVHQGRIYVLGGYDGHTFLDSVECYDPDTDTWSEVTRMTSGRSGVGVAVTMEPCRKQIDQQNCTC
Method: The Keap1 was amplified by PCR using a human cDNA library, and was subcloned into the vector pET28-TEV, which contained one tobacco etch virus (TEV) protease cleavage site at the upstream multiple cloning site. The protein was expressed in E. coli BL21 (DE3) cells and incubated at 37 °C until the OD600 value reached 0.6, using 0.2 mM isopropyl β-D-1-thiogalactopyranoside (IPTG) overnight induction at 18 °C. The cells were isolated by centrifugation, resuspended in ice-cold lysis buffer and lysed by cryogenic overpressure cell breaker at 1,200 psi. The lysates were centrifuged for 60 min at 14,000 rpm to obtain the supernatant. Gravity flow purification of Keap1 protein was obtained at room temperature using 1 mL of Ni-NTA and eluted in buffer containing 250 mM imidazole, followed by 1 mL of HiTrap QHP for the second step purification. The final protein was purified and validated by Superdex 200 10/300GL resin.
The mutant plasmid DNA was obtained by PCR. The PCR products were cleaved by DpnI restriction enzymes. The restriction endonuclease-cleaved mixture was subsequently transformed into E. coli DH5α. Colonies were evaluated by colony PCR and sequenced. The mutant plasmid was transformed into E. coli BL21 (DE3) after successful sequencing. The steps for expression and purification of all recombinants were described above.
Isothermal calorimetry (ITC) titration experiments were performed at 25 °C. WT Keap1, Keap1 mutants and PBA were dissolved in binding buffer (40 mM Tris-HCl pH 8.0, 250 mM NaCl). In a typical experiment, 60 μL of PBA (1 mM) was injected 19 times at 2-min intervals from a stirring syringe into the sample cell containing 300 μL of WT protein or mutants (30 μM). The first injection was 0.4 μL of PBA, and the subsequent 18 injections were 2 μL each time. The site-binding models were determined by using MicroCal Origin software.

pKd [2]: 5.07
T△S [2]: 2.32 ± 0.00 kcal/mol
△H [2]: -4.59 ± 0.199 kcal/mol
SMILES: C=C(COC(=O)C=Cc1ccc(O)c(O)c1)C(O)COC1OC(CO)C(O)C(O)C1O (centres unmarked) [PBA, pubescenoside A]
Keap1-dependent Nrf2 ubiquitination ([1]; WT Keap1, 30 μM PBA 20 h, 5 μM MG132 4 h): significantly suppressed
protection of Nrf2 from ubiquitination with mutant Keap1 ([1]; mutant Cys77S and Cys434S-Keap1 vectors): unable to protect Nrf2 from ubiquitination
